Measurements from patent publication US20170143716A1, “METHOD OF TREATING PROLIFERATIVE DISORDERS AND OTHER PATHOLOGICAL CONDITIONS MEDIATED BY BCR-ABL, C-KIT, DDR1, DDR2 OR PDGF-R KINASE ACTIVITY” (Novartis AG, priority 2009, published 2017).

Tests used:
[1] = human, in vivo, po, 400 mg
Procedure: The effect of food on the pharmacokinetic parameters of 400 mg oral dose of nilotinib in the formulation mentioned above was studied in human subjects. […] In view of these findings, it is recommended that nilotinib shall not be taken with a meal in order to minimize the effect of food on nilotinib bioavailability. A statement in this regard is, for instance, included in sections 4.2, 4.4 and 4.5 of the SPC (Summary of Product Characteristics) of the marketing authorization for Tasigna™ issued by the European Medicines Agency (EMEA).

[2] = Study in CML patients obtaining 400 mg nilotinib twice daily (trough concentrations C0, C12); format: in vivo, human; conditions: 21 CML patients, 400 mg twice daily
Procedure: 21 Patients were treated with 400 mg nilotinib twice daily. Blood samples were collected prior to morning dose (C0) and prior to evening dose (C12). […] With other words, the trough concentration of nilotinib in the morning was 60 to 80% higher than that observed in the evening.

[3] = PK study in healthy volunteers (4-way crossover, morning vs evening dosing); format: in vivo, human
Procedure: The increased exposure with QHS was confirmed in a study investigating nilotinib pharmacokinetics in healthy volunteers (HV) comparing cohorts receiving 600 mg morning dose or 600 mg morning dose QHS, respectively. In a single center, 4-way crossover study (n=16-24), HV group A was administered 300 mg nilotinib (in the form of nilotinib monohydrochloride monohydrate) in the morning, 2 hours after breakfast; HV group B was administered 300 mg nilotinib (in the form of nilotinib monohydrochloride monohydrate) in the evening, 2 hours after diner; HV group C was administered 600 mg nilotinib (in the form of nilotinib monohydrochloride monohydrate) in the evening, 2 hours after diner; and HV group D was administered 600 mg nilotinib (in the form of nilotinib monohydrochloride monohydrate) in the evening, 4 hours after diner.
The nilotinib PK was compared when administered in the evening versus administration in the morning (B vs. A) and the potential residual food effect on nilotinib absorption was assessed (D vs. C).

[4] = 300 mg evening vs 300 mg morning
[5] = 600 mg evening 4 hours after diner vs 2 hours after diner
[6] = group A: 300 mg in the morning, 2 hours after breakfast, N = 20
[7] = group B: 300 mg in the evening, 2 hours after diner, N = 18
[8] = group C: 600 mg in the evening, 2 hours after diner, N = 22
[9] = group D: 600 mg in the evening, 4 hours after diner, N = 22

increase in total exposure (AUC0-t) with food [1]: 29%
total exposure (AUC0-t) increase with food [1]: 82%
ratio C0/C12 (concentration prior to morning dose / prior to evening dose) [2]: 1.7
AUC0-12, Geometric Mean Ratio (90% Cls) B vs A [3, 4]: 1.21
AUC0-24, Geometric Mean Ratio (90% Cls) B vs A [3, 4]: 1.21
AUC0-inf, Geometric Mean Ratio (90% Cls) B vs A [3, 4]: 1.09
AUC0-tlast, Geometric Mean Ratio (90% Cls) B vs A [3, 4]: 1.14
Cmax, Geometric Mean Ratio (90% Cls) B vs A [3, 4]: 1.14
tmax, Geometric Mean Ratio (90% Cls) B vs A [3, 4]: 0.49
AUC0-12, Geometric Mean Ratio (90% Cls) D vs C [3, 5]: 0.93
AUC0-24, Geometric Mean Ratio (90% Cls) D vs C [3, 5]: 0.93
AUC0-inf, Geometric Mean Ratio (90% Cls) D vs C [3, 5]: 0.94
AUC0-tlast, Geometric Mean Ratio (90% Cls) D vs C [3, 5]: 0.94
Cmax, Geometric Mean Ratio (90% Cls) D vs C [3, 5]: 0.92
tmax, Geometric Mean Ratio (90% Cls) D vs C [3, 5]: −0.49
AUC0-12 [3, 6]: 4577 ng·h/mL
AUC0-24 [3, 6]: 7781 ng·h/mL
AUC0-inf [3, 6]: 14920 ng·h/mL
AUC0-tlast [3, 6]: 13650 ng·h/mL
Cmax [3, 6]: 577 ng/mL
t1/2 [3, 6]: 20.3 h
tmax [3, 6]: 4.0 h
AUC0-12 [3, 7]: 5537 ng·h/mL
AUC0-24 [3, 7]: 9435 ng·h/mL
AUC0-inf [3, 7]: 16272 ng·h/mL
AUC0-tlast [3, 7]: 15556 ng·h/mL
Cmax [3, 7]: 655 ng/mL
t1/2 [3, 7]: 14.5 h
tmax [3, 7]: 4.0 h
AUC0-12 [3, 8]: 7124 ng·h/mL
AUC0-24 [3, 8]: 11857 ng·h/mL
AUC0-inf [3, 8]: 23216 ng·h/mL
AUC0-tlast [3, 8]: 20819 ng·h/mL
Cmax [3, 8]: 854 ng/mL
t1/2 [3, 8]: 20.5 h
tmax [3, 8]: 4.0 h
AUC0-12 [3, 9]: 6650 ng·h/mL
AUC0-24 [3, 9]: 111064 ng·h/mL
AUC0-inf [3, 9]: 21937 ng·h/mL
AUC0-tlast [3, 9]: 19591 ng·h/mL
Cmax [3, 9]: 782 ng/mL
t1/2 [3, 9]: 19.9 h
tmax [3, 9]: 4.0 h
exposure higher following the evening dose than the morning dose ([3]; healthy volunteers, evening vs morning dose): up to 20%
Structure (SMILES): Cc1cn(-c2cc(NC(=O)c3ccc(C)c(Nc4nccc(-c5cccnc5)n4)c3)cc(C(F)(F)F)c2)cn1 [nilotinib, 4-methyl-3-[[4-(3-pyridinyl)-2-pyrimidinyl]amino]-N-[5-(4-methyl-1H-imidazol-1-yl)-3-(trifluoromethyl)phenyl] benzamide]
